# Test results: patent US10479795B2 (Incyte Corporation, priority 2016, dated 2019)
# Biological target: PI3Kγ (p110γ) Recombinant Human Protein (Homo sapiens (Human), UniProt P48736)
# Test: PI3K-γ Scintillation Proximity Assay
# Assay type: biochemical
# Details: read-out: PI3Kγ IC50
# Protocol: [γ-^33P]ATP (10 mCi/mL) and Wheat Germ Agglutinin (WGA) YSi SPA Scintillation Beads was purchased from Perkin-Elmer (Waltham, Mass.). […] PI3Kγ (p110γ) Recombinant Human Protein was purchased from Life technology (Grand Island, N.Y.). ATP, MgCl2, DTT, EDTA, MOPS and CHAPS were purchased from Sigma-Aldrich (St. Louis, Mo.).
# The kinase reaction was conducted in polystyrene 384-well Greiner Bio-one white plate from Thermo Fisher Scientific in a final volume of 25 μL. Inhibitors were first diluted serially in DMSO and added to the plate wells before the addition of other reaction components. The final concentration of DMSO in the assay was 2%. The PI3Kγ assay was carried out at room temperature in 20 mM MOPS, pH 6.7, 10 mM MgCl2, 5 mM DTT and CHAPS 0.03%. Reactions were initiated by the addition of ATP, the final reaction mixture consisted of 20 μM PIP2, 2 μM ATP, 0.5 μCi [γ-^33P] […] The final concentration of SPA beads is 1.0 mg/mL. After the plate sealing, plates were shaken overnight at room temperature and centrifuged at 1500 rpm for 10 min, the radioactivity of the product was determined by scintillation counting on Topcount (Perkin-Elmer). IC50 determination was performed by fitting the curve of percent of the solvent control activity versus the log of the inhibitor concentration using the GraphPad Prism 6.0 software.
# Chain of PI3Kγ (p110γ) Recombinant Human Protein (P48736 whole entry): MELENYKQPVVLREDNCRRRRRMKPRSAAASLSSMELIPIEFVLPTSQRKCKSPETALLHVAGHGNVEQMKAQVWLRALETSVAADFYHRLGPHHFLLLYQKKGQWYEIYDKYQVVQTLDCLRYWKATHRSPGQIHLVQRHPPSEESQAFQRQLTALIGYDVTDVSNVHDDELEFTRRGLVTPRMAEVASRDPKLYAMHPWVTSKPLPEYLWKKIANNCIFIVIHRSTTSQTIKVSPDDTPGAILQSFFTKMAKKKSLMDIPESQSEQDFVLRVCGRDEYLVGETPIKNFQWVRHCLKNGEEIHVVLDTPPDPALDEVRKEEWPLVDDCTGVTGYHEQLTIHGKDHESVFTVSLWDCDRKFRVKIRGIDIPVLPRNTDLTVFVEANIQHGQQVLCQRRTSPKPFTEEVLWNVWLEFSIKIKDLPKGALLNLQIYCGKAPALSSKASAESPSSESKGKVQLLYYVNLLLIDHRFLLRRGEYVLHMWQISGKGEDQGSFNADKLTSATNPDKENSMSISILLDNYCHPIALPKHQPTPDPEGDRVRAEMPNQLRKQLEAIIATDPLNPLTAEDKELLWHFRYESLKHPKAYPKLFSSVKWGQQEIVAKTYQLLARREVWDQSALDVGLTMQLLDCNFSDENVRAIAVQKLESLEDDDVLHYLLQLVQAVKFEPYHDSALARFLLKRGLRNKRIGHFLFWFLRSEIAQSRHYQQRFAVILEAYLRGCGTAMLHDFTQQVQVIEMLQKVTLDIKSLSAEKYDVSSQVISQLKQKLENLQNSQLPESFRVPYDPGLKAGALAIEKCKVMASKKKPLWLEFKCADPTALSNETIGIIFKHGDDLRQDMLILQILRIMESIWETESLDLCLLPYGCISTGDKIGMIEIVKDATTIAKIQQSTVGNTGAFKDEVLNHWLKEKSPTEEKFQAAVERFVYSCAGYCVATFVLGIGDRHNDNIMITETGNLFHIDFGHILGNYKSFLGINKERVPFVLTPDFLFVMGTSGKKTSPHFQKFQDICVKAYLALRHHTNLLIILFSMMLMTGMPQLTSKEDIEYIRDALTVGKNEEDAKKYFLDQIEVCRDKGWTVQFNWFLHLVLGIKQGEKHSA
row,Structure (SMILES),IC50 [nM]
1,"Cc1ccc(S(=O)(=O)N2CCC(c3ccccn3)CC2)cc1-c1cnc2c(N)ncnn12 [Example 216, 7-(2-methyl-5-((4-(pyridin-2-yl)piperidin-1-yl)sulfonyl)phenyl)imidazo[2,1-f][1,2,4]triazin-4-amine]",< 100
2,"Cc1ccc(S(=O)(=O)N2C3CC4CC2CC(C3)O4)cc1-c1cnc2c(N)ncnn12 [Example 221, 7-(5-((-2-oxa-6-azaadamantan-6-yl)sulfonyl)-2-methylphenyl)imidazo[2,1-f][1,2,4]triazin-4-amine]",< 100
3,"Cc1ccc(S(=O)(=O)N2CCn3cnnc3C2C)cc1-c1cnc2c(N)ncnn12 (stereo not shown) [Example 222, 7-(2-methyl-5-((8-methyl-5,6-dihydro-[1,2,4]triazolo[4,3-a]pyrazin-7(8H)-yl)sulfonyl)phenyl)imidazo[2,1-f][1,2,4]triazin-4-amine]",< 100
4,"Cc1ccc(S(=O)(=O)N2CCc3nc[nH]c3C2)cc1-c1cnc2c(N)ncnn12 [Example 224, 7-(2-methyl-5-((3,4,6,7-tetrahydro-5H-imidazo[4,5-c]pyridin-5-yl)sulfonyl)phenyl)imidazo[2,1-f][1,2,4]triazin-4-amine]",< 100
5,"Cc1ccc(S(=O)(=O)N2CCc3nn(C)cc3C2)cc1-c1cnc2c(N)ncnn12 [Example 225, 7-(2-methyl-5-((2-methyl-2,4,6,7-tetrahydro-5H-pyrazolo[4,3-c]pyridin-5-yl)sulfonyl)phenyl)imidazo[2,1-f][1,2,4]triazin-4-amine]",< 100
6,"Cc1ccc(S(=O)(=O)N2CCN(c3ncccn3)CC2)cc1-c1cnc2c(N)ncnn12 [Example 230, 7-(2-methyl-5-((4-(pyrimidin-2-yl)piperazin-1-yl)sulfonyl)phenyl)imidazo[2,1-f][1,2,4]triazin-4-amine]",< 100
7,"Cc1ccc(S(=O)(=O)N2CCN(c3nccnc3C#N)CC2)cc1-c1cnc2c(N)ncnn12 [Example 231, 3-(4-((3-(4-aminoimidazo[2,1-f][1,2,4]triazin-7-yl)-4-methylphenyl)sulfonyl)piperazin-1-yl)pyrazine-2-carbonitrile]",< 100
8,"Cc1ccc(S(=O)(=O)N2CCN(c3ccc(C#N)cn3)CC2)cc1-c1cnc2c(N)ncnn12 [Example 232, 6-(4-((3-(4-aminoimidazo[2,1-f][1,2,4]triazin-7-yl)-4-methylphenyl)sulfonyl)piperazin-1-yl)nicotinonitrile]",< 100
9,"Cc1ccc(S(=O)(=O)NCc2cnccn2)cc1-c1cnc2c(N)ncnn12 [Example 233, 3-(4-aminoimidazo[2,1-f][1,2,4]triazin-7-yl)-4-methyl-N-(pyrazin-2-ylmethyl)benzenesulfonamide]",< 100
10,"Cc1ccc(S(=O)(=O)NC(c2ccccn2)C(F)(F)F)cc1-c1cnc2c(N)ncnn12 (stereo not shown) [Example 234, 3-(4-aminoimidazo[2,1-f][1,2,4]triazin-7-yl)-4-methyl-N-(2,2,2-trifluoro-1-(pyridin-2-yl)ethyl)benzenesulfonamide]",100 to 500
11,"Cc1ccc(S(=O)(=O)NCc2cccc(C(F)(F)F)n2)cc1-c1cnc2c(N)ncnn12 [Example 235, 3-(4-aminoimidazo[2,1-f][1,2,4]triazin-7-yl)-4-methyl-N-((6-(trifluoromethyl)pyridin-2-yl)methyl)benzenesulfonamide]",< 100
12,"Cc1ccc(S(=O)(=O)N2CCn3ncc(C#N)c3C2)cc1-c1cnc2c(N)ncnn12 [Example 240, 5-((3-(4-aminoimidazo[2,1-f][1,2,4]triazin-7-yl)-4-methylphenyl)sulfonyl)-4,5,6,7-tetrahydropyrazolo[1,4-a]pyrazine-3-carbonitrile]",< 100
13,"Cc1ccc(S(=O)(=O)N2CCn3cnc(C(=O)NCC(F)(F)F)c3C2)cc1-c1cnc2c(N)ncnn12 [Example 241, 7-((3-(4-aminoimidazo[2,1-f][1,2,4]triazin-7-yl)-4-methylphenyl)sulfonyl)-N-(2,2,2-trifluoroethyl)-5,6,7,8-tetrahydroimidazo[1,5-a]pyrazine-1-carboxamide]",< 100
14,"Cc1ccc(S(=O)(=O)Nc2ccc(C(=O)N3CC(O)C3)nc2)cc1-c1cnc2c(N)ncnn12 [Example 242, 3-(4-aminoimidazo[2,1-f][1,2,4]triazin-7-yl)-N-(6-(3-hydroxyazetidine-1-carbonyl)pyridin-3-yl)-4-methylbenzenesulfonamide]",< 100
15,"Cc1ccc(S(=O)(=O)Nc2cc3cn[nH]c3cn2)cc1-c1cnc2c(N)ncnn12 [Example 243, 3-(4-aminoimidazo[2,1-f][1,2,4]triazin-7-yl)-4-methyl-N-(1H-pyrazolo[3,4-c]pyridin-5-yl)benzenesulfonamide]",< 100
16,"CC(=O)Nc1ccc(NS(=O)(=O)c2ccc(C)c(-c3cnc4c(N)ncnn34)c2)cn1 [Example 244, N-(5-((3-(4-aminoimidazo[2,1-f][1,2,4]triazin-7-yl)-4-methylphenyl)sulfonamido)pyridin-2-yl)acetamide]",< 100

# Other lines, results leading:
row,IC50 [nM],Structure (SMILES)
1,< 100,"Cc1ccc(S(=O)(=O)Nc2c(C)nn(C)c2C)cc1-c1cnc2c(N)ncnn12 [Example 214, 3-(4-Aminoimidazo[2,1-f][1,2,4]triazin-7-yl)-4-methyl-N-(1,3,5-trimethyl-1H-pyrazol-4-yl)benzenesulfonamide]"
2,< 100,"Cc1ccc(S(=O)(=O)N2CCCn3nccc32)cc1-c1cnc2c(N)ncnn12 [Example 215, 7-(5-((6,7-dihydropyrazolo[1,5-a]pyrimidin-4(5H)-yl)sulfonyl)-2-methylphenyl)imidazo[2,1-f][1,2,4]triazin-4-amine]"
3,< 100,"Cc1ccc(S(=O)(=O)N2CCC(C#N)CC2)cc1-c1cnc2c(N)ncnn12 [Example 217, 1-((3-(4-aminoimidazo[2,1-f][1,2,4]triazin-7-yl)-4-methylphenyl)sulfonyl)piperidine-4-carbonitrile]"
4,< 100,"Cc1ccc(S(=O)(=O)N2CCCC(C(F)(F)F)C2)cc1-c1cnc2c(N)ncnn12 (stereo not shown) [Example 218, 7-(2-methyl-5-((3-(trifluoromethyl)piperidin-1-yl)sulfonyl)phenyl)imidazo[2,1-f][1,2,4]triazin-4-amine]"
5,100 to 500,"Cc1ccc(S(=O)(=O)N2CC(C3CCOC3)C2)cc1-c1cnc2c(N)ncnn12 (stereo not shown) [Example 219, 7-(2-methyl-5-((3-(tetrahydrofuran-3-yl)azetidin-1-yl)sulfonyl)phenyl)imidazo[2,1-f][1,2,4]triazin-4-amine]"
6,< 100,"Cc1ccc(S(=O)(=O)N2CC3(CCOC3)C2)cc1-c1cnc2c(N)ncnn12 [Example 220, 7-(5-((6-oxa-2-azaspiro[3.4]octan-2-yl)sulfonyl)-2-methylphenyl)imidazo[2,1-f][1,2,4]triazin-4-amine]"
7,< 100,"Cc1ccc(S(=O)(=O)N2CCn3ccnc3C2)cc1-c1cnc2c(N)ncnn12 [Example 223, 7-(5-((5,6-dihydroimidazo[1,2-a]pyrazin-7(8H)-yl)sulfonyl)-2-methylphenyl)imidazo[2,1-f][1,2,4]triazin-4-amine]"
8,< 100,"CC(=O)NC1CCN(S(=O)(=O)c2ccc(C)c(-c3cnc4c(N)ncnn34)c2)CC1 [Example 226, N-(1-((3-(4-aminoimidazo[2,1-f][1,2,4]triazin-7-yl)-4-methylphenyl)sulfonyl)piperidin-4-yl)acetamide]"
9,< 100,"CNC(=O)C1CCN(S(=O)(=O)c2ccc(C)c(-c3cnc4c(N)ncnn34)c2)CC1 [Example 227, 1-((3-(4-aminoimidazo[2,1-f][1,2,4]triazin-7-yl)-4-methylphenyl)sulfonyl)-N-methylpiperidine-4-carboxamide]"
10,< 100,"Cc1ccc(S(=O)(=O)N2CCN(C)C(=O)C2)cc1-c1cnc2c(N)ncnn12 [Example 228, 4-((3-(4-aminoimidazo[2,1-f][1,2,4]triazin-7-yl)-4-methylphenyl)sulfonyl)-1-methylpiperazin-2-one]"
11,< 100,"CC(=O)N1CCN(S(=O)(=O)c2ccc(C)c(-c3cnc4c(N)ncnn34)c2)CC1 [Example 229, 1-(4-((3-(4-aminoimidazo[2,1-f][1,2,4]triazin-7-yl)-4-methylphenyl)sulfonyl)piperazin-1-l)ethan-1-one]"
12,< 100,"Cc1ccc(S(=O)(=O)NCc2ccnn2C)cc1-c1cnc2c(N)ncnn12 [Example 236, 3-(4-aminoimidazo[2,1-f][1,2,4]triazin-7-yl)-4-methyl-N-((1-methyl-1H-pyrazol-5-yl)methyl)benzenesulfonamide]"
13,< 100,"Cc1nc(CNS(=O)(=O)c2ccc(C)c(-c3cnc4c(N)ncnn34)c2)no1 [Example 237, 3-(4-aminoimidazo[2,1-f][1,2,4]triazin-7-yl)-4-methyl-N-((5-methyl-1,2,4-oxadiazol-3-yl)methyl)benzenesulfonamide]"
14,100 to 500,"Cc1ccc(S(=O)(=O)NC(CN)C2CC2)cc1-c1cnc2c(N)ncnn12 (stereo not shown) [Example 238, N-(2-amino-1-cyclopropylethyl)-3-(4-aminoimidazo[2,1-f][1,2,4]triazin-7-yl)-4-methylbenzenesulfonamide]"
15,500 to 2000,"Cc1ccc(S(=O)(=O)NC(C)(C)CN2CCCC2)cc1-c1cnc2c(N)ncnn12 [Example 239, 3-(4-aminoimidazo[2,1-f][1,2,4]triazin-7-yl)-4-methyl-N-(2-methyl-1-(pyrrolidin-1-yl)propan-2-yl)benzenesulfonamide]"
